# Results: article PMC6271041, “Synthesis and Biological Evaluation of Novel 2-Arylalkylthio-5-iodine-6-substituted-benzyl-pyrimidine-4(3H)-ones as Potent HIV-1 Non-Nucleoside Reverse Transcriptase Inhibitors” (Molecules, 2014)
# Key:
# [1] = biological target: T1, HIV-1 RT (Human immunodeficiency virus type 1 group M subtype B, UniProt P04585); test: Inhibitory activity against HIV-1 RT (biotin-dUTP incorporation, colorimetric); type: biochemical; conditions: for IC50: mean of three separate experiments, variation less than 15%
# T1 construct: The biotin-dUTP was incorporated by reverse transcriptase (Sigma, St. Louis, MO, USA); purchased Sigma
# Experimental: Oligo(dT) (TaKaRa Co., Otsu, Japan) was immobilized via its 5'-terminal phosphate to Covalink-NH microtiter plates (NUNC Co., Roskilde, Denmark). The biotin-dUTP was incorporated by reverse transcriptase (Sigma, St. Louis, MO, USA). Briefly, a serial concentration of inhibitor was added to the mixture, which contained 50 mmol/L Tris-HCl (pH 8.3), 3 mmol/L MgCl2, 75 mmol/L KCl, 5 mmol/L DTT, 0.13 mg/mL BSA, 10 μg/mL poly (A), 0.75 μM biotin-11-Dutp, 1.5 μM dTTP and HIV-1 RT. After incubation at 37 °C for 1h, washing buffer, which contained 50 mmol/L Tris-HCl (pH 7.5), 0.15 mol/L NaCl, 0.05 mmol/L MgCl2 and 0.02% Tween20, was used to wash the plate. Then each well of the plate was added […] 1% BSA and incubated at room temperature for another 30 min. The plate was washed with the same buffer for 3 times. Before further incubation at 37 °C for 1 h, 50 μL of alkaline phosphatase streptavidin (SA-ALP) solution (100 ng/mL) was added to each well and washed again as above. Finally, 50 μL of p-nitrophenyl phosphate, disodium (PNPP, 1 mg/mL, pH 9.5) was added and incubated at 37 °C for 30 min. 0.5 mol/L NaOH was added to stop the reaction and a colorimetric streptavidin-alkaline phosphatase reporter system was used to detect and quantify the result.
SMILES,melting point,IC50 [1],fold more active compared to nevirapine (HIV-1 RT IC50) [1]
"O=c1cc(Cc2ccccc2)nc(SCc2ccc([N+](=O)[O-])cc2)[nH]1 [7a, 2-(4-Nitrobenzylthio)-6-benzyluracil]",192 to 194 °C,> 100 µM,
"Cc1cc(C)cc(Cc2cc(=O)[nH]c(SCc3ccc([N+](=O)[O-])cc3)n2)c1 [7b, 2-(4-Nitrobenzylthio)-6-(3,5-dimethylbenzyl)uracil]",218 to 220 °C,3.32 µM,
"O=c1cc(Cc2cc(F)cc(F)c2)nc(SCc2ccc([N+](=O)[O-])cc2)[nH]1 [7c, 2-(4-Nitrobenzylthio)-6-(3,5-difluorobenzyl)uracil]",,> 100 µM,
"N#Cc1ccc(CSc2nc(Cc3ccccc3)cc(=O)[nH]2)cc1 [7d, 2-(4-Cyanobenzylthio)-6-benzyluracil]",190 to 193 °C,> 100 µM,
"Cc1cc(C)cc(Cc2cc(=O)[nH]c(SCc3ccc(C#N)cc3)n2)c1 [7e, 2-(4-Cyanobenzylthio)-6-(3,5-dimethylbenzyl)uracil]",193 to 196 °C,29.6 µM,
"N#Cc1ccc(CSc2nc(Cc3cc(F)cc(F)c3)cc(=O)[nH]2)cc1 [7f, 2-(4-Cyanobenzylthio)-6-(3,5-difluorobenzyl)uracil]",205 to 208 °C,15.8 µM,
"CC(=O)c1ccc(CSc2nc(Cc3ccccc3)cc(=O)[nH]2)cc1 [7g, 2-(4-Acetylbenzylthio)-6-benzyluracil]",204 to 205 °C,55 µM,
"CC(=O)c1ccc(CSc2nc(Cc3cc(C)cc(C)c3)cc(=O)[nH]2)cc1 [7h, 2-(4-Acetylbenzylthio)-6-(3,5-dimethylbenzyl)uracil]",195 to 197 °C,17 µM,
"CC(=O)c1ccc(CSc2nc(Cc3cc(F)cc(F)c3)cc(=O)[nH]2)cc1 [7i, 2-(4-Acetylbenzylthio)-6-(3,5-difluorobenzyl)uracil]",251 to 254 °C,33.9 µM,
"COC(=O)c1ccc(CSc2nc(Cc3ccccc3)cc(=O)[nH]2)cc1 [7j, 2-(4-Methoxycarbonylbenzylthio)-6-benzyluracil]",214 to 217 °C,> 100 µM,
"COC(=O)c1ccc(CSc2nc(Cc3cc(C)cc(C)c3)cc(=O)[nH]2)cc1 [7k, 2-(4-Methoxycarbonylbenzylthio)-6-(3,5-dimethylbenzyl)uracil]",221 to 224 °C,7.5 µM,
"COC(=O)c1ccc(CSc2nc(Cc3cc(F)cc(F)c3)cc(=O)[nH]2)cc1 [7l, 2-(4-Methoxycarbonylbenzylthio)-6-(3,5-difluorobenzyl)uracil]",279 to 280 °C,> 100 µM,
"O=c1cc(Cc2ccccc2)nc(SCCc2ccc([N+](=O)[O-])cc2)[nH]1 [7m, 2-(4-Nitrophenethylthio)-6-benzyluracil]",200 to 204 °C,67.2 µM,
"O=c1cc(Cc2cc(F)cc(F)c2)nc(SCCc2ccc([N+](=O)[O-])cc2)[nH]1 [7o, 2-(4-Nitrophenethylthio)-6-(3,5-difluorobenzyl)uracil]",220 to 222 °C,18.1 µM,
"O=c1cc(Cc2ccccc2)nc(SCCOc2ccc([N+](=O)[O-])cc2)[nH]1 [7p, 2-(2-(4-Nitrophenoxy)ethylthio)-6-benzyluracil]",212 to 213 °C,4.58 µM,
"O=c1cc(Cc2cc(F)cc(F)c2)nc(SCCOc2ccc([N+](=O)[O-])cc2)[nH]1 [7r, 2-(2-(4-Nitrophenoxy)ethylthio)-6-(3,5-difluorobenzyl)uracil]",210 to 212 °C,1.31 µM,
"O=c1cc(Cc2ccccc2)nc(SCCCOc2ccccc2)[nH]1 [7s, 2-(Phenoxypropylthio)-6-benzyluracil]",89 to 91 °C,16.7 µM,
"Cc1cc(C)cc(Cc2cc(=O)[nH]c(SCCCOc3ccccc3)n2)c1 [7t, 2-(Phenoxypropylthio)-6-(3,5-dimethylbenzyl)uracil]",100 to 102 °C,2.64 µM,
"O=c1cc(Cc2cc(F)cc(F)c2)nc(SCCCOc2ccccc2)[nH]1 [7u, 2-(Phenoxypropylthio)-6-(3,5-difluorobenzyl)uracil]",100 to 101 °C,14.4 µM,
"O=c1cc(Cc2ccccc2)nc(SCOCc2ccccc2)[nH]1 [7v, 2-(Benzyloxymethylthio)-6-benzyluracil]",118 to 120 °C,12.9 µM,
"Cc1cc(C)cc(Cc2cc(=O)[nH]c(SCOCc3ccccc3)n2)c1 [7w, 2-(Benzyloxymethylthio)-6-(3,5-dimethylbenzyl)uracil]",134 to 136 °C,1.82 µM,

SMILES,melting point,IC50 [1],fold more active compared to nevirapine (HIV-1 RT IC50) [1]
"O=c1[nH]c(SCc2ccc([N+](=O)[O-])cc2)nc(Cc2ccccc2)c1I [8a, 2-(4-Nitrobenzylthio)-5-iodine-6-benzyluracil]",207 to 210 °C,9.2 µM,
"Cc1cc(C)cc(Cc2nc(SCc3ccc([N+](=O)[O-])cc3)[nH]c(=O)c2I)c1 [8b, 2-(4-Nitrobenzylthio)-5-iodine-6-(3,5-dimethylbenzyl)uracil]",224 to 228 °C,1.66 µM,
"O=c1[nH]c(SCc2ccc([N+](=O)[O-])cc2)nc(Cc2cc(F)cc(F)c2)c1I [8c, 2-(4-Nitrobenzylthio)-5-iodine-6-(3,5-difluorobenzyl)uracil]",203 to 206 °C,5.5 µM,
"N#Cc1ccc(CSc2nc(Cc3ccccc3)c(I)c(=O)[nH]2)cc1 [8d, 2-(4-Cyanobenzylthio)-5-iodine-6-benzyluracil]",223 to 226 °C,10.6 µM,
"Cc1cc(C)cc(Cc2nc(SCc3ccc(C#N)cc3)[nH]c(=O)c2I)c1 [8e, 2-(4-Cyanobenzylthio)-5-iodine-6-(3,5-dimethylbenzyl)uracil]",224 to 227 °C,4.03 µM,
"N#Cc1ccc(CSc2nc(Cc3cc(F)cc(F)c3)c(I)c(=O)[nH]2)cc1 [8f, 2-(4-Cyanobenzylthio)-5-iodine-6-(3,5-difluorobenzyl)uracil]",216 to 219 °C,4.49 µM,
"CC(=O)c1ccc(CSc2nc(Cc3ccccc3)c(I)c(=O)[nH]2)cc1 [8g, 2-(4-Acetylbenzylthio)-5-iodine-6-benzyluracil]",219 to 220 °C,13.8 µM,
"CC(=O)c1ccc(CSc2nc(Cc3cc(F)cc(F)c3)c(I)c(=O)[nH]2)cc1 [8i, 2-(4-Acetylbenzylthio)-5-iodine-6-(3,5-difluorobenzyl)uracil]",205 to 206 °C,4.03 µM,
"COC(=O)c1ccc(CSc2nc(Cc3ccccc3)c(I)c(=O)[nH]2)cc1 [8j, 2-(4-Methoxycarbonylbenzylthio)-5-iodine-6-benzyluracil]",214 to 216 °C,3.64 µM,
"COC(=O)c1ccc(CSc2nc(Cc3cc(C)cc(C)c3)c(I)c(=O)[nH]2)cc1 [8k, 2-(4-Methoxycarbonylbenzylthio)-5-iodine-6-(3,5-dimethylbenzyl)uracil]",208 to 211 °C,1.11 µM,
"COC(=O)c1ccc(CSc2nc(Cc3cc(F)cc(F)c3)c(I)c(=O)[nH]2)cc1 [8l, 2-(4-Methoxycarbonylbenzylthio)-5-iodine-6-(3,5-difluorobenzyl)uracil]",210 to 213 °C,0.71 µM,about 10 fold
"O=c1[nH]c(SCCc2ccc([N+](=O)[O-])cc2)nc(Cc2ccccc2)c1I [8m, 2-(4-Nitrophenethylthio)-5-iodine-6-benzyluracil]",209 to 212 °C,8.64 µM,
"O=c1[nH]c(SCCc2ccc([N+](=O)[O-])cc2)nc(Cc2cc(F)cc(F)c2)c1I [8o, 2-(4-Nitrophenethylthio)-5-iodine-6-(3,5-difluorobenzyl)uracil]",220 to 221 °C,6.88 µM,
O=c1[nH]c(SCCOc2ccc([N+](=O)[O-])cc2)nc(Cc2ccccc2)c1I [8p],204 to 205 °C,6.28 µM,
"O=c1[nH]c(SCCCOc2ccccc2)nc(Cc2ccccc2)c1I [8s, 2-(Phenoxypropylthio)-5-iodine-6-benzyluracil]",135 to 137 °C,5.88 µM,
"Cc1cc(C)cc(Cc2nc(SCCCOc3ccccc3)[nH]c(=O)c2I)c1 [8t, 2-(Phenoxypropylthio)-5-iodine-6-(3,5-dimethylbenzyl)uracil]",165 to 167 °C,12.9 µM,
"O=c1[nH]c(SCCCOc2ccccc2)nc(Cc2cc(F)cc(F)c2)c1I [8u, 2-(Phenoxypropylthio)-5-iodine-6-(3,5-difluorobenzyl)uracil]",156 to 158 °C,18 µM,
"O=c1[nH]c(SCOCc2ccccc2)nc(Cc2ccccc2)c1I [8v, 2-(Benzyloxymethylthio)-5-iodine-6-benzyluracil]",133 to 135 °C,10.2 µM,
"Cc1cc(C)cc(Cc2nc(SCOCc3ccccc3)[nH]c(=O)c2I)c1 [8w, 2-(Benzyloxymethylthio)-5-iodine-6-(3,5-dimethylbenzyl)uracil]",200 to 202 °C,8.75 µM,
"CC(C)c1c(Cc2ccccc2)n(COCc2ccccc2)c(=O)[nH]c1=O [TNK-651, reference compound]",,0.14 µM,
